Data: patent publication US20110166121A1 (LG LIFE SCIENCES LTD., priority 2008, published 2011)

Columns and labels:
Human P2Y12 receptor = target: T1, Human P2Y12 receptor (Homo sapiens, UniProt Q9H244); experiment: Human P2Y12 receptor cell membrane binding assay with [3H] 2-Mes-ADP; details: 1 nM [3H] 2-Mes-ADP, membranes of HEK cells expressing P2Y12 receptor; read-out: Binding activity (IC50)
T1 construct: expressed in transfected cells; host or cells: HEK cells
Outline: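 Competition binding used 1 nM [3H]2-MeS-ADP on P2Y12-expressing HEK cell membranes for 1 h at room temperature, followed by filtration and scintillation counting.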

[1] = test system: Human platelet aggregation caused by ADP; experiment: Inhibition of ADP-induced platelet aggregation (Mimic-human PRP); type: cell-based; details: 20 μM ADP; for Ki: human platelet concentrate diluted with PPP, absorption at 595 nm
Outline: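 Ki came from non-linear sigmoidal fits of inhibition, measured as the 3-min rise in absorbance at 595 nm after 20 μM ADP, relative to 0/20 μM ADP controls. Platelets (3–4×10^8/mL in PPP-diluted human PRP) were exposed to 0.01–30 μM compound for 20 min at room temperature beforehand.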

T1 sequence (Q9H244 whole entry): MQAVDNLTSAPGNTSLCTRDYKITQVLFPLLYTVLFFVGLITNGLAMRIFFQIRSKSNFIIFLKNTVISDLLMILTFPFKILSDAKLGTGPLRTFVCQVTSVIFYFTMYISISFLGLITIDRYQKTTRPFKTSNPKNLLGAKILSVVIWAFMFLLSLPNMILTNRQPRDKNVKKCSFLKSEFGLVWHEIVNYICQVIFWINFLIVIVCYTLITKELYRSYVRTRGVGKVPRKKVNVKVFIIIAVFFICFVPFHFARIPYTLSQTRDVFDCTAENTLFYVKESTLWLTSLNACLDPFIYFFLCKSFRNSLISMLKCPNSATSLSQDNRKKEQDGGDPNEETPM

CCCc1cc2c(N3CCn4c(nnc4C(F)(F)F)C3)nc(-c3nnc(CC4CCCCC4)o3)nc2s1 [Example 4-43, 7-[2-(5-Cyclohexylmethyl-[1,3,4]oxadiazol-2-yl)-6-propyl-thieno[2,3-d]pyrimidin-4-yl]-3-trifluoromethyl-5,6,7,8-tetrahydro-[1,2,4]triazolo[4,3-a]pyrazine]
IC50 (Human P2Y12 receptor): 147 nM
Ki [1]: 2700 nM

CCCc1cc2c(N3CCn4c(nnc4C(F)(F)F)C3)nc(-c3nnn[nH]3)nc2s1 [Example 4-44, 7-[6-Propyl-2-(1H-tetrazol-5-yl)-thieno[2,3-d]pyrimidin-4-yl]-3-trifluoromethyl-5,6,7,8-tetrahydro-[1,2,4]triazolo[4,3-a]pyrazine]
IC50 (Human P2Y12 receptor): 1600 nM
Ki [1]: > 4000 nM

CCCc1cc2c(N3CCn4c(nnc4C(F)(F)F)C3)nc(C3=N[C@H](C(=O)OC)CS3)nc2s1 [Example 4-47, (R)-2-[6-Propyl-4-(3-trifluoromethyl-5,6-dihydro-8H-[1,2,4]triazolo[4,3-a]pyrazin-7-yl)thieno[2,3-d]pyrimidin-2-yl]-4,5-dihydro-thiazole-4-carboxylic acid methyl ester]
IC50 (Human P2Y12 receptor): 24 nM
Ki [1]: 13 nM

CCCc1cc2c(N3CCn4c(nnc4C(F)(F)F)C3)nc(C3=N[C@H](CC(=O)OC(C)C)CS3)nc2s1 [Example 4-48, {(R)-2-[6-Propyl-4-(3-trifluoromethyl-5,6-dihydro-8H-[1,2,4]triazolo[4,3-a]pyrazin-7-yl)thieno[2,3-d]pyrimidin-2-yl]-4,5-dihydro-thiazol-4-yl}acetic acid isopropyl ester]
IC50 (Human P2Y12 receptor): 210 nM
Ki [1]: 510 nM

CCCc1cc2c(N3CCn4c(nnc4C(F)(F)F)C3)nc(C3=N[C@H](CC(=O)O)CS3)nc2s1 [Example 4-49, {(R)-2-[6-Propyl-4-(3-trifluoromethyl-5,6-dihydro-8H-[1,2,4]triazolo[4,3-a]pyrazin-7-yl)thieno[2,3-d]pyrimidin-2-yl]-4,5-dihydro-thiazol-4-yl}acetic acid]
IC50 (Human P2Y12 receptor): 33 nM
Ki [1]: 11 nM

CCCc1cc2c(N3CCn4c(nnc4C(F)(F)F)C3)nc(-c3nc(CO)cs3)nc2s1 [Example 4-50, {2-[6-Propyl-4-(3-trifluoromethyl-5,6-dihydro-8H-[1,2,4]triazolo[4,3-a]pyrazin-7-yl)thieno[2,3-d]pyrimidin-2-yl]thiazol-4-yl}methanol]
IC50 (Human P2Y12 receptor): 57 nM
Ki [1]: 34 nM

CCCc1cc2c(N3CCn4c(nnc4C(F)(F)F)C3)nc(-c3nc(CC(=O)OCC)cs3)nc2s1 [Example 4-51, {2-[6-Propyl-4-(3-trifluoromethyl-5,6-dihydro-8H-[1,2,4]triazolo[4,3-a]pyrazin-7-yl)thieno[2,3-d]pyrimidin-2-yl]thiazol-4-yl}acetic acid ethyl ester]
IC50 (Human P2Y12 receptor): 40 nM
Ki [1]: 36 nM

CCCc1cc2c(N3CCn4c(nnc4C(F)(F)F)C3)nc(-c3nc(CC(=O)O)cs3)nc2s1 [Example 4-52, {2-[6-Propyl-4-(3-trifluoromethyl-5,6-dihydro-8H-[1,2,4]triazolo[4,3-a]pyrazin-7-yl)thieno[2,3-d]pyrimidin-2-yl]thiazol-4-yl}acetic acid]
IC50 (Human P2Y12 receptor): 14 nM
Ki [1]: 38 nM

CCCc1cc2c(N3CCn4c(nnc4C(F)(F)F)C3)nc(CC(=O)OCC)nc2s1 [Example 4-53, [6-Propyl-4-(3-trifluoromethyl-5,6-dihydro-8H-[1,2,4]triazolo[4,3-a]pyrazin-7-yl)thieno[2,3-d]pyrimidin-2-yl]acetic acid ethyl ester]
IC50 (Human P2Y12 receptor): 300 nM
Ki [1]: 5250 nM

CCCc1cc2c(N3CCn4c(nnc4C(F)(F)F)C3)nc(CC(=O)O)nc2s1 [Example 4-54, [6-Propyl-4-(3-trifluoromethyl-5,6-dihydro-8H-[1,2,4]triazolo[4,3-a]pyrazin-7-yl)thieno[2,3-d]pyrimidin-2-yl]acetic acid]
IC50 (Human P2Y12 receptor): 370 nM
Ki [1]: 470 nM

CCCc1cc2c(N3CCn4c(nnc4C(F)(F)F)C3)nc(CC(N)=O)nc2s1 [Example 4-55, 2-[6-Propyl-4-(3-trifluoromethyl-5,6-dihydro-8H-[1,2,4]triazolo[4,3-a]pyrazin-7-yl)-thieno[2,3-d]pyrimidin-2-yl]-acetamide]
IC50 (Human P2Y12 receptor): 174 nM
Ki [1]: 4.2 nM

CCCc1cc2c(N3CCn4c(nnc4C(F)(F)F)C3)nc(CC(N)=S)nc2s1 [Example 4-56, 2-[6-Propyl-4-(3-trifluoromethyl-5,6-dihydro-8H-[1,2,4]triazolo[4,3-a]pyrazin-7-yl)-thieno[2,3-d]pyrimidin-2-yl]-thioacetamide]
IC50 (Human P2Y12 receptor): 170 nM
Ki [1]: 6.4 nM

CCCc1cc2c(N3CCn4c(nnc4C(F)(F)F)C3)nc(Cc3nc(C(=O)OCC)cs3)nc2s1 [Example 4-57, 2-[6-Propyl-4-(3-trifluoromethyl-5,6-dihydro-8H-[1,2,4]triazolo[4,3-a]pyrazin-7-yl)-thieno[2,3-d]pyrimidin-2-ylmethyl]-thiazole-4-carboxylic acid ethyl ester]
IC50 (Human P2Y12 receptor): 240 nM
Ki [1]: 280 nM

CCCc1cc2c(N3CCn4c(nnc4C(F)(F)F)C3)nc(Cc3nc(C(=O)O)cs3)nc2s1 [Example 4-58, 2-[6-Propyl-4-(3-trifluoromethyl-5,6-dihydro-8H-[1,2,4]triazolo[4,3-a]pyrazin-7-yl)-thieno[2,3-d]pyrimidin-2-ylmethyl]-thiazole-4-carboxylic acid]
IC50 (Human P2Y12 receptor): 300 nM
Ki [1]: 243 nM

CCCc1cc2c(N3CCn4c(nnc4C(F)(F)F)C3)nc(-c3nc(CCO)cs3)nc2s1 [Example 4-59, 2-{2-[6-Propyl-4-(3-trifluoromethyl-5,6-dihydro-8H-[1,2,4]triazolo[4,3-a]pyrazin-7-yl)-thieno[2,3-d]pyrimidin-2-yl]-thiazol-4-yl}-ethanol]
IC50 (Human P2Y12 receptor): 40 nM
Ki [1]: 8.4 nM

CCCc1nc2c(N3CCn4c(nnc4C(F)(F)F)C3)nc(N3CCNC(=O)C3)nc2s1 [Example 5-4, 4-[2-Propyl-7-(3-trifluoromethyl-5,6-dihydro-8H-[1,2,4]triazolo[4,3-a]pyrazin-7-yl)-thiazolo[5,4-d]pyrimidin-5-yl]-piperazin-2-one]
IC50 (Human P2Y12 receptor): 72 nM
Ki [1]: 57 nM

CCCc1nc2c(N3CCn4c(nnc4C(F)(F)F)C3)nc(N3CC[C@H](N)C3)nc2s1 [Example 5-5, (S)-1-[2-Propyl-7-(3-trifluoromethyl-5,6-dihydro-8H-[1,2,4]triazolo[4,3-a]pyrazin-7-yl)-thiazolo[5,4-d]pyrimidin-5-yl]-pyrrolidin-3-ylamine]
IC50 (Human P2Y12 receptor): 170 nM
Ki [1]: 25 nM

CCCc1nc2c(N3CCn4c(nnc4C(F)(F)F)C3)nc(N3CCC[C@H](C(=O)OCC)C3)nc2s1 [Example 5-6, (S)-1-[2-Propyl-7-(3-trifluoromethyl-5,6-dihydro-8H-[1,2,4]triazolo[4,3-a]pyrazin-7-yl)-thiazolo[5,4-d]pyrimidin-5-yl]-piperidine-3-carboxylic acid ethyl ester]
IC50 (Human P2Y12 receptor): 630 nM
Ki [1]: > 4000 nM

CCCc1nc2c(N3CCn4c(nnc4C(F)(F)F)C3)nc(N3CCC[C@H](C(=O)O)C3)nc2s1 [Example 5-7, (S)-1-[2-Propyl-7-(3-trifluoromethyl-5,6-dihydro-8H-[1,2,4]triazolo[4,3-a]pyrazin-7-yl)-thiazolo[5,4-d]pyrimidin-5-yl]-piperidine-3-carboxylic acid]
IC50 (Human P2Y12 receptor): 32 nM
Ki [1]: 38 nM

CCc1cc2c(N3CCn4c(nnc4C(F)(F)C(F)(F)F)C3)nc(OCC(O)CO)nc2s1 (stereo not shown) [Example 6-3, 3-[6-Ethyl-4-(3-pentafluoroethyl-5,6-dihydro-8H-[1,2,4]triazolo[4,3-a]pyrazin-7-yl)-thieno[2,3-d]pyrimidin-2-yloxy]-propane-1,2-diol]
IC50 (Human P2Y12 receptor): 620 nM
Ki [1]: 395 nM

CCCc1cc2c(N3CCn4c(nnc4C(F)(F)C(F)(F)F)C3)nc(N3CCNC(=O)C3)nc2s1 [Example 6-4, 4-[4-(3-Pentafluoroethyl-5,6-dihydro-8H-[1,2,4]triazolo[4,3-a]pyrazin-7-yl)-6-propyl-thieno[2,3-d]pyrimidin-2-yl]-piperazin-2-one]
IC50 (Human P2Y12 receptor): 128 nM
Ki [1]: 308 nM

CCCc1cc2c(N3CCn4c(nnc4C(F)(F)C(F)(F)F)C3)nc(N3CCNCC3)nc2s1 [Example 6-5, 3-Pentafluoroethyl-7-(2-piperazin-1-yl-6-propyl-thieno[2,3-d]pyrimidin-4-yl)-5,6,7,8-tetrahydro-[1,2,4]triazolo[4,3-a]pyrazine]
IC50 (Human P2Y12 receptor): 266 nM
Ki [1]: 940 nM

CCCc1cc2c(N3CCn4c(nnc4C(F)(F)C(F)(F)F)C3)nc(N3CCN(C)CC3)nc2s1 [Example 6-6, 7-[2-(4-Methyl-piperazin-1-yl)-6-propyl-thieno[2,3-d]pyrimidin-4-yl]-3-pentafluoroethyl-5,6,7,8-tetrahydro-[1,2,4]triazolo[4,3-a]pyrazine]
IC50 (Human P2Y12 receptor): 315 nM
inhibition at 40 µM ([1]; Homo sapiens, Platelet, 40 μM compound): 49%

CCCc1cc2c(N3CCn4c(nnc4C(F)(F)C(F)(F)F)C3)nc(NCCO)nc2s1 [Example 6-7, 2-[4-(3-Pentafluoroethyl-5,6-dihydro-8H-[1,2,4]triazolo[4,3-a]pyrazin-7-yl)-6-propyl-thieno[2,3-d]pyrimidin-2-ylamino]-ethanol]
IC50 (Human P2Y12 receptor): 490 nM
Ki [1]: 407 nM

CCCc1cc2c(N3CCn4c(nnc4C(F)(F)C(F)(F)F)C3)nc(OCC(O)CO)nc2s1 (stereo not shown) [Example 6-8, 3-[4-(3-Pentafluoroethyl-5,6-dihydro-8H-[1,2,4]triazolo[4,3-a]pyrazin-7-yl)-6-propyl-thieno[2,3-d]pyrimidin-2-yloxy]-propane-1,2-diol]
IC50 (Human P2Y12 receptor): 130 nM
Ki [1]: 95 nM

CCCc1cc2c(N3CCn4c(nnc4C(F)(F)C(F)(F)F)C3)nc(OCCO)nc2s1 [Example 6-9, 2-[4-(3-Pentafluoroethyl-5,6-dihydro-8H-[1,2,4]triazolo[4,3-a]pyrazin-7-yl)-6-propyl-thieno[2,3-d]pyrimidin-2-yloxy]-ethanol]
IC50 (Human P2Y12 receptor): 120 nM
Ki [1]: 30 nM
